Experimental data: PubChem BioAssay AID1259411 (Chemical Carcinogenesis Research Information System (CCRIS), 2018)
The source made the active and inactive calls. The rule behind the calls is not given here.

Tested on: rodent carcinogenicity bioassays, tumor incidence
Assay: CCRIS carcinogenicity studies
Method in brief: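 NCI-built, expert-reviewed records of carcinogenicity and related test outcomes (mutagenicity, tumor promotion/inhibition) compiled from published and report sources, historical span 1985-2011, not updated.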

CC(=O)CN(CC(C)=O)N=O
carcinogen call (Species: GUINEA PIG, Strain/Sex: STRAIN-13/MALE, Route: SUBCUTANEOUS, Dose: 70 MG/KG/WK FOR 2 WK FOLLOWED BY 1 WK NO TREATMENT THEN 20 MG/KG/WK FOR 2 WK, Tumor Site: Type of Lesion: LIVER: CHOLANGIOMA, CHOLANGIOCARCINOMA): active; positive
carcinogen call (Species: HAMSTER, Strain/Sex: SYRIAN/FEMALE, Route: SUBCUTANEOUS, Dose: 2.5, 5, 10 MG/KG, Dose: 2.5, 5, 10 MG/KG, Tumor Site: Type of Lesion: PANCREAS: DUCTAL ADENOMA, INTRADUCTAL CARCINOMA, ADENOCARCINOMA, LUNG: ADENOMA, ADENOCARCINOMA, SQUAMOUS CELL CARCINOMA;, Tumor Site: Type of Lesion: PANCREAS: DUCTAL ADENOMA, INTRADUCTAL CARCINOMA, ADENOCARCINOMA, LUNG: ADENOMA, ADENOCARCINOMA, SQUAMOUS CELL CARCINOMA): active; positive
carcinogen call (Species: HAMSTER, Strain/Sex: SYRIAN/MALE,FEMALE, Route: ORAL, Dose: 0.35, 0.7, 1.4% IN DRINKING WATER, Dose: 0.35, 0.7, 1.4% IN DRINKING WATER, Tumor Site: Type of Lesion: LIVER: CHOLANGIOMA, INTRADUCTAL CARCINOMA, CHOLANGIOCARCINOMA, GALL BLADDER: POLYP, COMMON BILE DUCT: POLYP, COMMON DUCT, Tumor Site: Type of Lesion: LIVER: CHOLANGIOMA, INTRADUCTAL CARCINOMA, CHOLANGIOCARCINOMA, GALL BLADDER: POLYP, COMMON BILE DUCT: POLYP, COMMON DUCT): active; positive
carcinogen call (Species: HAMSTER, Strain/Sex: SYRIAN/MALE, Route: SUBCUTANEOUS, Dose: 2.5, 5, 10 MG/KG, Dose: 2.5, 5, 10 MG/KG, Tumor Site: Type of Lesion: PANCREAS: DUCTAL ADENOMA, INTRADUCTAL CARCINOMA, ADENOCARCINOMA, LUNG: ADENOMA, ADENOCARCINOMA, GALL BLADDER: PAPILLARY, Tumor Site: Type of Lesion: PANCREAS: DUCTAL ADENOMA, INTRADUCTAL CARCINOMA, ADENOCARCINOMA, LUNG: ADENOMA, ADENOCARCINOMA, GALL BLADDER: PAPILLARY): active; positive
carcinogen call (Species: MOUSE, Strain/Sex: ICR/FEMALE, Route: SUBCUTANEOUS, Dose: 0, 10, 20, 40 MG/KG BW IN 1% GELATIN SOLUTION ON DAYS 1, 8, 15 AND 22 OF AGE (STUDY DURATION: 1 YR), Dose: 0, 10, 20, 40 MG/KG BW IN 1% GELATIN SOLUTION ON DAYS 1, 8, 15 AND 22 OF AGE (STUDY DURATION: 1 YR), Tumor Site: Type of Lesion: NASAL CAVITY: TUMOR, LUNG: TUMOR, LIVER: TUMOR, Tumor Site: Type of Lesion: NASAL CAVITY: TUMOR, LUNG: TUMOR, LIVER: TUMOR): active; positive
carcinogen call (Species: MOUSE, Strain/Sex: ICR/MALE, Route: SUBCUTANEOUS, Dose: 0, 10, 20, 40 MG/KG BW IN 1% GELATIN SOLUTION ON DAYS 1, 8, 15 AND 22 OF AGE (STUDY DURATION: 1 YR), Dose: 0, 10, 20, 40 MG/KG BW IN 1% GELATIN SOLUTION ON DAYS 1, 8, 15 AND 22 OF AGE (STUDY DURATION: 1 YR), Tumor Site: Type of Lesion: NASAL CAVITY: TUMOR, LUNG: TUMOR, LIVER: TUMOR, Tumor Site: Type of Lesion: NASAL CAVITY: TUMOR, LUNG: TUMOR, LIVER: TUMOR): active; positive
carcinogen call (Species: RAT, Strain/Sex: CD-1/FEMALE, Route: SUBCUTANEOUS, Dose: 0, 5.35, 10.7, 21.4 MG/KG 1/WK FOR LIFE (STUDY DURATION: LIFE), Dose: 0, 5.35, 10.7, 21.4 MG/KG 1/WK FOR LIFE (STUDY DURATION: LIFE), Tumor Site: Type of Lesion: NASAL CAVITY: TUMOR): active; positive
carcinogen call (Species: RAT, Strain/Sex: CD-1/MALE, Route: SUBCUTANEOUS, Dose: 0, 6.15, 12.3, 24.6 MG/KG 1/WK FOR LIFE (STUDY DURATION: LIFE), Dose: 0, 6.15, 12.3, 24.6 MG/KG 1/WK FOR LIFE (STUDY DURATION: LIFE), Tumor Site: Type of Lesion: NASAL CAVITY: TUMOR): active; positive
carcinogen call (Species: RAT, Strain/Sex: F344/FEMALE, Route: INTRAVESICULAR, Dose: 0, 0.8 MG IN 0.2 ML ETHANOL: DEIONIZED WATER (1:3) 2/WK FOR 30 WK (TOTAL DOSE 0.3 MMOL) (STUDY DURATION: LIFESPAN), Tumor Site: Type of Lesion: BLADDER: TRANSITIONAL CELL CARCINOMA, TRANSITIONAL CELL PAPILLOMA, LUNG: TUMOR, KIDNEY: MESENCHYMAL NEOPLASM, LIVER: TUM, Tumor Site: Type of Lesion: BLADDER: TRANSITIONAL CELL CARCINOMA, TRANSITIONAL CELL PAPILLOMA, LUNG: TUMOR, KIDNEY: MESENCHYMAL NEOPLASM, LIVER: TUM): active; positive
carcinogen call (Species: RAT, Strain/Sex: F344/FEMALE, Route: ORAL, Dose: 0, 55 MG/L DRINKING WATER 5 D/WK FOR 50 WK (TOTAL DOSE 275 MG) (STUDY DURATION: LIFESPAN), Tumor Site: Type of Lesion: LIVER: CARCINOMA, ANGIOSARCOMA, LUNG: TUMOR): active; positive
carcinogen call (Species: RAT, Strain/Sex: F344/FEMALE, Route: SUBCUTANEOUS, Dose: 0, 10 MG/KG/BW 2/WK FOR A TOTAL OF 11 DOSES BEGINNING AT 2 D OF AGE (STUDY DURATION: 26 WK), Tumor Site: Type of Lesion: LIVER: HEPATOCELLULAR CARCINOMA, KIDNEY: NEPHROBLASTOMA): active; positive
carcinogen call (Species: RAT, Strain/Sex: F344/MALE, Route: SUBCUTANEOUS, Dose: 0, 10 MG/KG/BW 2/WK FOR A TOTAL OF 11 DOSES BEGINNING AT 2 D OF AGE (STUDY DURATION: 26 WK), Tumor Site: Type of Lesion: LIVER: HEPATOCELLULAR CARCINOMA, KIDNEY: NEPHROBLASTOMA, TESTIS: GONADAL STROMAL TUMOR, Tumor Site: Type of Lesion: LIVER: HEPATOCELLULAR CARCINOMA, KIDNEY: NEPHROBLASTOMA, TESTIS: GONADAL STROMAL TUMOR): active; positive
carcinogen call (Species: RAT, Strain/Sex: MRC/MALE,FEMALE, Route: SUBCUTANEOUS, Dose: 2.5, 5, 10 MG/KG, Dose: 2.5, 5, 10 MG/KG, Tumor Site: Type of Lesion: THYROID GLAND: FOLLICULAR ADENOMA, CARCINOMA): active; positive
carcinogen call (Species: RAT, Strain/Sex: SPRAGUE-DAWLEY/FEMALE, Route: SUBCUTANEOUS, Dose: 0, 5.35, 10.7, 21.4 MG/KG BW IN 0.9% SALINE 1/WK FOR DURATION OF STUDY (STUDY DURATION: 96 WK), Dose: 0, 5.35, 10.7, 21.4 MG/KG BW IN 0.9% SALINE 1/WK FOR DURATION OF STUDY (STUDY DURATION: 96 WK), Tumor Site: Type of Lesion: KIDNEY (RENAL PELVIS): TUMOR, URETER: TUMOR, URINARY BLADDER: TUMOR, Tumor Site: Type of Lesion: KIDNEY (RENAL PELVIS): TUMOR, URETER: TUMOR, URINARY BLADDER: TUMOR): active; positive
carcinogen call (Species: RAT, Strain/Sex: SPRAGUE-DAWLEY/MALE, Route: SUBCUTANEOUS, Dose: 0, 6.15, 12.3, 24.6 MG/KG BW IN 0.9% SALINE 1/WK FOR DURATION OF STUDY (STUDY DURATION: 96 WK), Dose: 0, 6.15, 12.3, 24.6 MG/KG BW IN 0.9% SALINE 1/WK FOR DURATION OF STUDY (STUDY DURATION: 96 WK), Tumor Site: Type of Lesion: KIDNEY (RENAL PELVIS): TUMOR, URINARY BLADDER: TUMOR): active; positive

O=CC(O)C(O)C(O)C(O)COC1OC(COC2OC(CO)C(O)C(O)C2O)C(O)C(O)C1O (stereo unspecified)
carcinogen call (Species: RAT, Strain/Sex: ACI/FEMALE, Route: ORAL, Dose: 0, 2.5% (MOL. WT. 21500) IN DIET FOR 480 D (STUDY DURATION: 480 D)): inactive; negative
carcinogen call (Species: RAT, Strain/Sex: ACI/MALE, Route: ORAL, Dose: 0, 2.5% (MOL. WT. 21500) IN DIET FOR 480 D (STUDY DURATION: 480 D)): inactive; negative

CN(Cc1ccccc1)N=O
carcinogen call (Species: MOUSE, Strain/Sex: CD-1/MALE, FEMALE, Route: INTRAPERITONEAL, Dose: 0, 4 MG/KG 2/WK FOR 12 WK, 8 MG/KG 2/WK FOR 6 WK, 16 MG/KG 2/WK FOR 3 WK FOR TOTAL DOSES OF 96 MG/KG (STUDY DURATION: 40, Dose: 0, 4 MG/KG 2/WK FOR 12 WK, 8 MG/KG 2/WK FOR 6 WK, 16 MG/KG 2/WK FOR 3 WK FOR TOTAL DOSES OF 96 MG/KG (STUDY DURATION: 40, Tumor Site: Type of Lesion: FORESTOMACH: PAPILLOMA, CARCINOMA): active; positive
carcinogen call (Species: RAT, Strain/Sex: SPRAGUE-DAWLEY/MALE, Route: GAVAGE, Dose: 0, 0.5, 2 MG/KG IN SALINE ONCE ADMINISTERED TO RATS MAINTAINED ON ZINC-DEFICIENT DIET (STUDY DURATION: 14 WK), Dose: 0, 0.5, 2 MG/KG IN SALINE ONCE ADMINISTERED TO RATS MAINTAINED ON ZINC-DEFICIENT DIET (STUDY DURATION: 14 WK), Tumor Site: Type of Lesion: ESOPHAGUS: TUMOR): active; positive

Nc1nc(=S)c2ncn([C@H]3C[C@H](O)[C@@H](CO)O3)c2[nH]1
carcinogen call (Species: RAT, Strain/Sex: SPRAGUE-DAWLEY/FEMALE, Route: INTRAPERITONEAL, Dose: 0, 3.5, 7 MG/KG FOR 52 WK (STUDY DURATION: 78 WK), Dose: 0, 3.5, 7 MG/KG FOR 52 WK (STUDY DURATION: 78 WK), Tumor Site: Type of Lesion: EAR (CANAL): CARCINOMA, NOS OR SQUAMOUS CELL CARCINOMA): active; positive
carcinogen call (Species: RAT, Strain/Sex: SPRAGUE-DAWLEY/MALE, Route: INTRAPERITONEAL, Dose: 0, 3.5, 7 MG/KG FOR 52 WK (STUDY DURATION: 78 WK), Dose: 0, 3.5, 7 MG/KG FOR 52 WK (STUDY DURATION: 78 WK), Tumor Site: Type of Lesion: EAR (CANAL): CARCINOMA OR SQUAMOUS CELL CARCINOMA): equivocal
